Measured values published in ChEMBL document CHEMBL5154766, “Synthesis, bioevaluation and molecular dynamics of pyrrolo-pyridine benzamide derivatives as potential antitumor agents in vitro and in vivo” (Eur J Med Chem, 2022).
One block for each molecule: values may come before it. Activity calls are given as the source filed them. No cut-off for these calls is given here.

Assays:
HeLa = experiment: Antiproliferative activity against human HeLa cells expressing c-Met after 48 hrs by MTT assay; format: functional, cell-based
A549 [1] = experiment: Antiproliferative activity against human A549 cells expressing c-Met after 48 hrs by MTT assay; format: functional, cell-based; conditions: A549, 48 h
MCF7 = experiment: Antiproliferative activity against human MCF7 cells expressing c-Met after 48 hrs by MTT assay; format: functional, cell-based; conditions: MCF7, 48 h
A549 [2] = experiment: Induction of cell cycle arrest in human A549 cells assessed as accumulation at G2/M phase at 5 uM measured by flow cytometry (reference value: 7.98%); format: functional
A549 [3] = experiment: Induction of cell cycle arrest in human A549 cells assessed as accumulation at G0/G1 phase at 5 uM measured by flow cytometry (reference value: 57.68%); format: functional
A549 [4] = experiment: Antitumor activity against human A549 cells xenografted in BALB/c nude mouse assessed as reduction in Ki67 expression at 20 mg/kg, ip administered every two days for 18 days by immunohistochemistry; format: functional, organism-based; conditions: time 18.0 day
A549 [5] = experiment: Induction of apoptosis in human A549 cells assessed as early apoptotic cells at 5 uM measured after 24 hrs by PI/Annexin V staining based flow cytometry assay (reference value: 2.5%); format: functional
[6] = Toxicity in BALB/c nude mouse xenografted with human A549 cells assessed as effect on body weight at 20 mg/kg, ip administered every two days for 18 days; format: organism-based; conditions: in vivo, 432 h, time 18 day
A549 [7] = experiment: Antitumor activity against human A549 cells xenografted in BALB/c nude mouse assessed as tumor growth inhibition at 20 mg/kg, ip administered every two days for 18 days; format: functional; conditions: A549, 432 h, time 18 day, read-out: TGI
[8] = Toxicity in BALB/c nude mouse xenografted with human A549 cells assessed as effect on kidney at 20 mg/kg, ip administered every two days for 18 days by H and E staining method; format: organism-based; conditions: in vivo, 432 h, time 18 day
[9] = Toxicity in BALB/c nude mouse xenografted with human A549 cells assessed as effect on heart at 20 mg/kg, ip administered every two days for 18 days by H and E staining method; format: organism-based; conditions: in vivo, 432 h, time 18 day
A549 [10] = experiment: Induction of apoptosis in human A549 cells assessed as late apoptotic cells at 5 uM measured after 24 hrs by PI/Annexin V staining based flow cytometry assay (reference value: 4.49%); format: functional
[11] = Toxicity in BALB/c nude mouse xenografted with human A549 cells assessed as effect on liver at 20 mg/kg, ip administered every two days for 18 days by H and E staining method; format: organism-based; conditions: in vivo, 432 h, time 18 day
A549 [12] = experiment: Induction of cell cycle arrest in human A549 cells assessed as accumulation at S phase at 5 uM measured by flow cytometry (reference value: 34.34%); format: functional
A549 [13] = experiment: Induction of apoptosis in human A549 cells assessed as cell fragment formation at 1 to 5 uM measured after 12 hrs by Acridine orange staining method; format: functional, cell-based; conditions: dose 1-5 µM
A549 [14] = experiment: Induction of cell cycle arrest in human A549 cells assessed as accumulation at G0/G1 phase at 10 uM measured by flow cytometry (reference value: 57.68%); format: functional
A549 [15] = experiment: Induction of apoptosis in human A549 cells assessed as early apoptotic cells at 2.5 uM measured after 24 hrs by PI/Annexin V staining based flow cytometry assay (reference value: 2.5%); format: functional
A549 [16] = experiment: Induction of cell cycle arrest in human A549 cells assessed as accumulation at G0/G1 phase at 2.5 uM measured by flow cytometry (reference value: 57.68%); format: functional
A549 [17] = experiment: Induction of apoptosis in human A549 cells assessed as late apoptotic cells at 10 uM measured after 24 hrs by PI/Annexin V staining based flow cytometry assay (reference value: 4.49%); format: functional
A549 [18] = experiment: Downregulation of c-Met expression in human A549 cells at 5 to 10 uM measured by fluorescence quantitative PCR analysis; format: functional, cell-based; conditions: dose 5-10 µM
A549 [19] = experiment: Induction of apoptosis in human A549 cells assessed as early apoptotic cells at 10 uM measured after 24 hrs by PI/Annexin V staining based flow cytometry assay (reference value: 2.5%); format: functional
A549 [20] = experiment: Induction of cell cycle arrest in human A549 cells assessed as accumulation at S phase at 2.5 uM measured by flow cytometry (reference value: 34.34%); format: functional
A549 [21] = experiment: Induction of cell cycle arrest in human A549 cells assessed as accumulation at G2/M phase at 2.5 uM measured by flow cytometry (reference value: 7.98%); format: functional
A549 [22] = experiment: Induction of cell cycle arrest in human A549 cells assessed as accumulation at S phase at 10 uM measured by flow cytometry (reference value: 34.34%); format: functional
A549 [23] = experiment: Induction of apoptosis in human A549 cells assessed as membrane swelling at 1 to 5 uM measured after 12 hrs by Acridine orange staining method; format: functional, cell-based; conditions: dose 1-5 µM
A549 [24] = experiment: Induction of apoptosis in human A549 cells assessed as late apoptotic cells at 2.5 uM measured after 24 hrs by PI/Annexin V staining based flow cytometry assay (reference value: 4.49%); format: functional
A549 [25] = experiment: Induction of apoptosis in human A549 cells assessed as apoptotic bodies formation at 1 to 5 uM measured after 12 hrs by Acridine orange staining method; format: functional, cell-based; conditions: dose 1-5 µM
A549 [26] = experiment: Induction of cell cycle arrest in human A549 cells assessed as accumulation at G2/M phase at 10 uM measured by flow cytometry (reference value: 7.98%); format: functional
A549 [27] = experiment: Induction of apoptosis in human A549 cells assessed as cytoplasmic shrinkage at 1 to 5 uM measured after 12 hrs by Acridine orange staining method; format: functional, cell-based; conditions: dose 1-5 µM
A549 [28] = experiment: Induction of apoptosis in human A549 cells assessed as increase in chromatin contraction at 1 to 5 uM measured after 12 hrs by Acridine orange staining method; format: functional, cell-based; conditions: dose 1-5 µM

IC50 (HeLa): 80 µM
IC50 (A549 [1]): 18.2 µM
IC50 (MCF7): 46.7 µM
SMILES: O=C(Nc1ccc(Oc2ccnc3[nH]ccc23)cc1)c1cn(-c2ccccc2)c2ncccc2c1=O

IC50 (HeLa): 50.2 µM
IC50 (A549 [1]): 10.8 µM
IC50 (MCF7): 29.1 µM
SMILES: Cn1ccc2c(Oc3ccc(NC(=O)c4cn(-c5ccc(Br)cc5)c5ncccc5c4=O)cc3)ccnc21

IC50 (HeLa): 27.8 µM
IC50 (A549 [1]): 9.15 µM
IC50 (MCF7): 13 µM
SMILES: O=C(Nc1ccc(Oc2ccnc3[nH]ccc23)c(F)c1)c1cn(-c2ccc(C(F)(F)F)cc2Cl)c2ncccc2c1=O

IC50 (HeLa): 95.4 µM
IC50 (A549 [1]): 26 µM
IC50 (MCF7): 47.2 µM
SMILES: COc1ccc(-n2cc(C(=O)Nc3ccc(Oc4ccnc5[nH]ccc45)cc3)c(=O)c3cccnc32)cc1

IC50 (A549 [1]): 16.9 µM
IC50 (MCF7): 14.8 µM
SMILES: Cn1ccc2c(Oc3ccc(NC(=O)c4cn(-c5ccccc5)c5ncccc5c4=O)cc3F)ccnc21

IC50 (HeLa): 77 µM
IC50 (A549 [1]): 22.3 µM
IC50 (MCF7): 13.1 µM
SMILES: Cn1ccc2c(Oc3ccc(NC(=O)c4cn(-c5ccccc5)c5ncccc5c4=O)cc3)ccnc21

IC50 (A549 [1]): 20.1 µM
IC50 (MCF7): 55.6 µM
SMILES: O=C(Nc1ccc(Oc2ccnc3[nH]ccc23)c(F)c1)c1cn(-c2ccc(Br)cc2F)c2ncccc2c1=O

IC50 (HeLa): 61.2 µM
IC50 (A549 [1]): 29.9 µM
SMILES: Cn1ccc2c(Oc3ccc(NC(=O)c4cn(-c5ccc(Br)cc5F)c5ncccc5c4=O)cc3F)ccnc21

IC50 (HeLa): 14.9 µM
IC50 (A549 [1]): 6.42 µM
IC50 (MCF7): 7.16 µM
SMILES: O=C(Nc1ccc(Oc2ccnc3[nH]ccc23)c(F)c1)c1cn(-c2ccc(F)cc2)c2ncccc2c1=O

IC50 (HeLa): 50.3 µM
SMILES: O=C(Nc1ccc(Oc2ccnc3[nH]ccc23)cc1)c1cn(-c2ccc(C(F)(F)F)cc2Cl)c2ncccc2c1=O

IC50 (HeLa): 14.2 µM
IC50 (A549 [1]): 12.4 µM
IC50 (MCF7): 2.01 µM
SMILES: O=C(Nc1ccc(Oc2ccnc3[nH]ccc23)cc1)c1cn(-c2ccc(F)c(Cl)c2)c2ncccc2c1=O

IC50 (HeLa): 19.9 µM
IC50 (A549 [1]): 7.23 µM
IC50 (MCF7): 1.18 µM
SMILES: COc1ccc(-n2cc(C(=O)Nc3ccc(Oc4ccnc5[nH]ccc45)c(F)c3)c(=O)c3cccnc32)cc1

IC50 (HeLa): 86 µM
IC50 (A549 [1]): 9.62 µM
SMILES: O=C(Nc1ccc(Oc2ccnc3[nH]ccc23)cc1)c1cn(-c2ccc(F)cc2)c2ncccc2c1=O

IC50 (HeLa): 29.3 µM
IC50 (A549 [1]): 6.51 µM
IC50 (MCF7): 13 µM
SMILES: O=C(Nc1ccc(Oc2ccnc3[nH]ccc23)c(F)c1)c1cn(-c2ccccc2)c2ncccc2c1=O

IC50 (HeLa): 79.1 µM
IC50 (A549 [1]): 0.33 µM
IC50 (MCF7): 30.9 µM
SMILES: COc1cc2nccc(Oc3ccc(NC(=O)C4(C(=O)Nc5ccc(F)cc5)CC4)cc3)c2cc1OC [CABOZANTINIB]
Activity (A549 [2]): 15.48%
Activity (A549 [3]): 69.22%
Activity (A549 [4]): Active
Activity (A549 [5]): 2.32%
Activity [6]: Non-Toxic
inhibition in vivo at 20 mg/kg (A549 [7]): 47.9%
Activity [8]: Non-Toxic
Activity [9]: Non-Toxic
Activity (A549 [10]): 6.89%
Activity [11]: Non-Toxic
Activity (A549 [12]): 15.31%

IC50 (A549 [1]): 28.7 µM
SMILES: Cn1ccc2c(Oc3ccc(NC(=O)c4cn(-c5ccc(Br)cc5F)c5ncccc5c4=O)cc3)ccnc21

IC50 (HeLa): 49.3 µM
IC50 (A549 [1]): 8.39 µM
IC50 (MCF7): 30.8 µM
SMILES: O=C(Nc1ccc(Oc2ccnc3[nH]ccc23)cc1)c1cn(-c2ccc(Br)cc2)c2ncccc2c1=O

IC50 (A549 [1]): 5.29 µM
SMILES: O=C(Nc1ccc(Oc2ccnc3[nH]ccc23)c(F)c1)c1cn(-c2ccc(Cl)cc2)c2ncccc2c1=O

IC50 (A549 [1]): 22.7 µM
SMILES: O=C(Nc1ccc(Oc2ccnc3[nH]ccc23)cc1)c1cn(-c2ccc(Br)cc2F)c2ncccc2c1=O

IC50 (A549 [1]): 15.1 µM
IC50 (MCF7): 48.6 µM
SMILES: Cn1ccc2c(Oc3ccc(NC(=O)c4cn(-c5ccc(F)c(Cl)c5)c5ncccc5c4=O)cc3)ccnc21

IC50 (HeLa): 53.3 µM
SMILES: O=C(Nc1ccc(Oc2ccnc3[nH]ccc23)cc1)c1cn(-c2ccc(Cl)cc2)c2ncccc2c1=O

IC50 (A549 [1]): 30.6 µM
IC50 (MCF7): 44.9 µM
SMILES: COc1ccc(-n2cc(C(=O)Nc3ccc(Oc4ccnc5c4ccn5C)cc3)c(=O)c3cccnc32)cc1

IC50 (A549 [1]): 10.2 µM
IC50 (MCF7): 5.49 µM
SMILES: Cn1ccc2c(Oc3ccc(NC(=O)c4cn(-c5ccc(Br)cc5)c5ncccc5c4=O)cc3F)ccnc21

IC50 (HeLa): 80.3 µM
SMILES: Cn1ccc2c(Oc3ccc(NC(=O)c4cn(-c5ccc(C(F)(F)F)cc5Cl)c5ncccc5c4=O)cc3)ccnc21

IC50 (HeLa): 76.6 µM
IC50 (A549 [1]): 16.8 µM
SMILES: Cn1ccc2c(Oc3ccc(NC(=O)c4cn(-c5ccc(F)cc5)c5ncccc5c4=O)cc3)ccnc21

IC50 (HeLa): 53.1 µM
IC50 (A549 [1]): 9.71 µM
IC50 (MCF7): 12 µM
SMILES: O=C(Nc1ccc(Oc2ccnc3[nH]ccc23)c(F)c1)c1cn(-c2ccc(F)c(Cl)c2)c2ncccc2c1=O

IC50 (HeLa): 10.9 µM
IC50 (A549 [1]): 1.06 µM
IC50 (MCF7): 0.11 µM
SMILES: O=C(Nc1ccc(Oc2ccnc3[nH]ccc23)c(F)c1)c1cn(-c2ccc(Br)cc2)c2ncccc2c1=O
Activity (A549 [13]): Active
Activity (A549 [14]): 69.22%
Activity (A549 [15]): 3.33%
Activity (A549 [16]): 58.72%
Activity (A549 [2]): 13.01%
Activity (A549 [3]): 60.15%
Activity (A549 [4]): Active
Activity (A549 [17]): 12.69%
Activity (A549 [18]): Active
Activity (A549 [5]): 2.2%
Activity (A549 [19]): 4%
Activity [6]: Non-Toxic
Activity (A549 [20]): 31.09%
inhibition in vivo at 20 mg/kg (A549 [7]): 64.5%
Activity [8]: Non-Toxic
Activity (A549 [21]): 10.19%
Activity (A549 [22]): 15.31%
Activity (A549 [23]): Active
Activity (A549 [24]): 5.58%
Activity [9]: Non-Toxic
Activity (A549 [25]): Active
Activity (A549 [10]): 8.13%
Activity (A549 [26]): 15.48%
Activity [11]: Non-Toxic
Activity (A549 [27]): Active
Activity (A549 [12]): 26.84%
Activity (A549 [28]): Active

IC50 (HeLa): 63 µM
IC50 (A549 [1]): 15.3 µM
SMILES: Cn1ccc2c(Oc3ccc(NC(=O)c4cn(-c5ccc(Cl)cc5)c5ncccc5c4=O)cc3)ccnc21
